According to patent US9795625B2, “Uridine and uridine analogues for treatment of specific lung diseases, namely COPD and pulmonary fibrosis” (Universitaetsklinikum Freiburg, priority 2011, dated 2017):

Columns and labels:
[1] = system: sephadex-induced acute lung inflammation; conditions: sephadex-induced acute lung inflammation model; cited from earlier work
smoke exposed mice = assay: Acute cigarette smoke exposure, i.t. uridine, BAL fluid analysis; format: in vivo, Male C57BL/6 mice
Method: Male C57BL/6 mice were exposed to whole smoke of five cigarettes (commercial Virginia filter cigarettes: 12 mg of tar and 0.9 mg of nicotine) or room air for 20 min on three consecutive days in especially designed macrolon cages (Tecniplast, Buguggiate, Italy), as previously described (Cavarra E et al., Human SLPI inactivation after cigarette smoke exposure in a new in vivo model of pulmonary oxidative stress, Am J Physiol Lung Cell Mol Physiol. 2001 August; 281(2):L412-7, Cicko S et al., Purinergic receptor inhibition prevents the development of smoke-induced lung injury and emphysema, J Immunol. 2010 Jul. 1; 185(1):688-97). The smoke was produced by the burning of a cigarette and was introduced into the chamber with the airflow generated by a mechanical ventilator (7025 Rodent Ventilator, Ugo Basile, Biological Research Instruments, Comerio, Italy), at a rate of 250 ml/min. A second mechanical ventilator was used to provide room air for dilution (1:8) of the smoke-stream.
In some experiments, intratracheal treatment (i.t.) was performed prior to each smoke exposure: animals were anaesthetized by intraperitoneal injection of Ketamin/Xylazin and received an i.t. injection of uridine in a total volume of 80 μl (1 mM or 10 mM) or PBS which was used as vehicle. One hour after the last smoke challenge, mice were sacrificed and bronchoalveolar lavage (BAL) was performed.
BAL fluid was collected by cannulating the trachea under deep pentobarbital anesthesia and washing the lung three times with 1 ml PBS containing 0.1 mM EDTA, as previously described (Idzko M et al., Extracellular ATP triggers and maintains asthmatic airway inflammation by activating dendritic cells, Nat Med. 2007 Aug.; 13(8):913-9, Cicko S et al., Purinergic receptor inhibition prevents the development of smoke-induced lung injury and emphysema, J Immunol. 2010 Jul. 1; 185(1):688-97). Total cell numbers were counted and differential cell counts were performed on cytospin preparations after staining with Diff-Quick (Medion Diagnostics, Dudingen, Switzerland). Differential cell counts were made on >200 cells using standard morphological criteria and FACS-analysis.
After counting and washing, BAL cells were stained for 30 min with anti-MHC class II (macrophages/DC), anti-7/4 (Caltag) FITC (neutrophiles; Abd-Serotec, Düsseldorf, Germany), anti-CD3 and anti-CD19 cy-chrome (lymphocytes), and anti-CD 11c APC macrophages/DCs (eBioscience, San Diego, Calif.) in PBS containing 0.5% BSA and 0.01% sodium azide. Differential cell counts were analyzed by flow cytometry, as described previously (Idzko M et al., Extracellular ATP triggers and maintains asthmatic airway inflammation by activating dendritic cells, Nat Med. 2007 Aug.; 13(8):913-9 and Cicko S et al., Purinergic receptor inhibition prevents the development of smoke-induced lung injury and emphysema, J Immunol. 2010 Jul. 1; 185(1):688-97).
To measure ATP concentrations in BALF in mice, fresh BALF supernatants were used, according to manufacturer's instructions (ATPlite Assay, PerkinElmer, Wellesley Mass.), but without the cell lysis step to avoid any contaminating intracellular ATP, as described previously (Idzko M et al., Extracellular ATP triggers and maintains asthmatic airway inflammation by activating dendritic cells, Nat Med. 2007 Aug.; 13(8):913-9 Cicko S et al., Purinergic receptor inhibition prevents the development of smoke-induced lung injury and emphysema, J Immunol. 2010 Jul. 1; 185(1):688-97)).
(§1) Cytokine concentrations in BALF were measured using commercially available ELISA kits (R&D Systems, Minneapolis, Minn.) according to the manufacturer's recommendations.
(§2) Statistical significance of differences between samples was calculated using ANOVA, followed by Bonferroni comparison test. Difference were considered significant if p<0.05.

[2] = system: murine model of chronic smoke exposure; assay: Chronic exposure to cigarette smoke (pulmonary emphysema), lung morphometry; format: in vivo, male C57BL/6 mice; conditions: uridine 0.6 mg/kg oral gavage 45 min prior to smoke exposure vs non-uridine treated mice (FIG. 2)
Description: The methodology for chronic smoke exposure has been previously described (Cavarra E et al., Human SLPI inactivation after cigarette smoke exposure in a new in vivo model of pulmonary oxidative stress, Am J Physiol Lung Cell Mol Physiol. 2001 August; 281(2):L412-7 Cicko S et al., Purinergic receptor inhibition prevents the development of smoke-induced lung injury and emphysema, J Immunol. 2010 Jul. 1; 185(1):688-97)). Briefly, male C57BL/6 mice were exposed to either the smoke of 3 cigarettes per day (commercial Virginia filter cigarettes: 12 mg of tar and 0.9 mg of nicotine), 5 days per week or to room air (controls) for 4 or 7 months, respectively.
When indicated, animals received an oral treatment by gavage with Uridine (0.6 mg/kg) 45 min prior to smoke exposure.
At the end of the respective time period, animals were sacrificed; BAL was performed followed by lung resection. […] Lung volume was measured by water displacement. […]
This Lm value was used to calculate the ISA (which represent the gas exchange surface), necessary for evaluating the degree of emphysema, from the equation 4V/Lm, where V is the postfixation lung volume. For the determination of the Lm for each pair of lungs, 40 histological fields were evaluated both vertically and horizontally.
Statistical significance of differences between samples was calculated using ANOVA, followed by Bonferroni comparison test. […]

[3] = system: BLM-induced pulmonary fibrosis; assay: Mouse model of bleomycin (BLM) induced pulmonary fibrosis; format: in vivo, male C57/B16 mice
Method: The induction of BLM induced pulmonary fibrosis was performed as previously described (Gasse P, Mary C, Guenon I, Noulin N, Charron S, Schnyder-Candrian S, Schnyder B, Akira S, Quesniaux V F, Lagente V, et al. II-1r1/myd88 signaling and the inflammasome are essential in pulmonary inflammation and fibrosis in mice. J Clin Invest 2007; 117(12):3786-3799). Then, male C57/B16 animals were treated with the uridine p.o. (200 μl 10 mM) or vehicle 14 days after BLM-instillation for 3 days a week. At day 30 animals were examined for the typical features of BLM-induced lung injury. Therefore BALF was collected and differential cell count was analyzed as described above.
as §1
The amount of lung collagen was measured in the lung tissue using the Sircol-assay according to the manufacturer's recommendations (Biocolor, Life-Science, UK).
as §2

[4] = system: asthmatic airway inflammation; conditions: OVA-alum model and HDM model in mice, local administration; cited from earlier work
[5] = system: mitochondrial toxicity caused by highly active antiretroviral therapy (HAART); conditions: cited from earlier work
[6] = BALF, uridine i.t. 1 mM or 10 mM
[7] = BALF, uridine p.o. 200 μl 10 mM, day 30
[8] = uridine p.o. 200 μl 10 mM, day 30

**Q.** For `O=c1[nH]c(=S)ccn1[C@@H]1O[C@H](CO)[C@@H](O)[C@H]1O` [4-thiouridine], which anti-inflammatory effects [1] is on record?
**A.** Its anti-inflammatory effects is “anti-inflammatory effects similar to those of uridine”.

**Q.** Which results are given for `O=c1ccn([C@@H]2O[C@H](CO)[C@@H](O)[C@H]2O)c(=O)[nH]1` [uridine]?
**A.** level of IFN-γ (smoke exposed mice; [6]): dose dependently reduced; level of IL-1β (smoke exposed mice; [6]): dose dependently reduced; level of IL-6 (smoke exposed mice; [6]): dose dependently reduced; level of KC (smoke exposed mice; [6]): dose dependently reduced; level of MIP-2 (smoke exposed mice; [6]): dose dependently reduced; number of macrophages (smoke exposed mice; [6]): dose dependently reduced; number of neutrophils (smoke exposed mice; [6]): dose dependently reduced; amount of extracellular ATP in BALF (smoke exposed mice; uridine i.t. 80 μl 1 mM or 10 mM vs non uridine treated mice (FIG. 1b)): significantly be reduced in a dose dependent manner; internal surface area of the lung [2]: higher; mean linear intercept [2]: significantly lower; IL-1 beta [3, 7]: down-regulation; IL-6 [3, 7]: down-regulation; KC [3, 7]: down-regulation; TNFalpha [3, 7]: down-regulation; BLM-induced pulmonary fibrosis ([3]; uridine p.o 3×/week from day 14, day 30 (FIG. 3)): decreases; amount of collagen in the lung ([3]; uridine p.o. 200 μl 10 mM 3 days a week from day 14, day 30): significantly reduce; TIMP-1 ([3]; uridine p.o. 200 μl 10 mM, after bleomycin instillation (FIG. 3)): reduced to normal levels; lymphocytes in BALF [3, 8]: down-regulation; macrophages in BALF [3, 8]: down-regulation; neutrophils in BALF [3, 8]: down-regulation; asthmatic airway inflammation [4]: suppress; efficacy in reduction of mitochondrial toxicity ([5]; human, HAART): efficacious; safety ([5]; in vivo): safe
